Columns and labels:
[1] = Percent of Dabigatran etexilate remaining after exposure to aqueous solutions; format: physicochemical; details: 15 minutes
[2] = pH 4.5-7.4; cited from earlier work
[3] = Aqueous solubility of Dabigatran etexilate in presence of solubility enhancers; format: physicochemical
Description: However, based on data presented in Table I, TPGS (tocopherol polyethylene glycol succinate) would be expected to be a poor solubilizer by one skilled in the art. […] The present invention provides pharmaceutical compositions and method of administration of Dabigatran etexilate to overcome the clinical limitations posed by gastrointestinal delivery, specifically by increasing the solubility of Dabigatran etexilate, while maintaining it in its most bioavailable form to ascertain an effective transport through the oral mucous membranes so it effectively can exert its anticoagulant activity. We have observed that the use of pharmaceutical solubilizers such as d-alpha Tocopherol polyethylene glycol succinate (TPGS) and Polysorbate 80 improved the solubility up to 5-10 mg/mL. Without being bound to any specific mechanism, the enhanced solubility and dissolution of Dabigatran etexilate, when co-formulated with TPGS may likely be due to ability of TPGS to inhibit precipitation and maintain supersaturation of dabigatran free base in the formulation microenvironment during dissolution. Pharmaceutical co-solvents such as Polyethylene Glycol 400 (PEG 400) and Glycerol improved the solubility compared to water alone, but the solubility was still<0.1 mg/mL.

% of Initial (23° C.) ([1]; Water): 21.6%
% of Initial (40° C.) ([1]; Water): 21.0%
% of Initial (23° C.) ([1]; pH 2 acetate buffer (0.1M)): 0.2%
% of Initial (40° C.) ([1]; pH 2 acetate buffer (0.1M)): 0.2%
% of Initial (23° C.) ([1]; pH 3 acetate buffer (0.1M)): 22.4%
% of Initial (40° C.) ([1]; pH 3 acetate buffer (0.1M)): 22.2%
% of Initial (23° C.) ([1]; pH 4 phosphate buffer (0.1M)): 59.5%
% of Initial (40° C.) ([1]; pH 4 phosphate buffer (0.1M)): 55.7%
Solubility (mg/ml) 25° C. ([3]; 2% w/v Polysorbate 80 in 0.01M histidine buffer, pH 7.4, 25° C.): <0.1 mg/mL
Solubility (mg/ml) 25° C. ([3]; 5% w/v Polysorbate 80 in 0.01M histidine buffer, pH 7.5, 25° C.): <0.1 mg/mL
Solubility (mg/ml) 25° C. ([3]; 5% w/v TPGS in 0.01M histidine buffer, pH 7.6, 25° C.): 0.37 mg/mL
Solubility (mg/ml) 25° C. ([3]; 10% w/v Glycerol in 0.01M histidine buffer, pH 7.6, 25° C.): <0.1 mg/mL
Solubility (mg/ml) 25° C. ([3]; 10% w/v PEG 400 in 0.01M histidine buffer, pH 7.5, 25° C.): <0.1 mg/mL
Solubility with pharmaceutical co-solvents ([3]; Polyethylene Glycol 400 (PEG 400) and Glycerol): < 100 µg/mL
Solubility (mg/ml) 25° C. ([3]; Water, pH 6.5, 25° C.): <0.001 mg/mL
Substance: Dabigatran etexilate
Solubility under physiological conditions relevant to oral absorption [2]: virtually insoluble

Reference: patent US20190008843A1, “PHARMACEUTICAL COMPOSITIONS FOR ON DEMAND ANTICOAGULANT THERAPY” (Kenox Pharmaceuticals Inc, priority 2016, published 2019)
